SMILES strings stand for the structures. Bounds are passed on as bounds.

IC50 data for 37 compounds are collected here from patent publication US10752640B2, “Compounds active towards bromodomains” (NUEVOLUTION A/S, priority 2014, dated 2020).

For this assay, the target named is BRD4 protein (Homo sapiens, UniProt O60885). In words: FRET assay, half maximal inhibitory concentration (IC50). Conditions: BRD4 protein 50 nM, Biotin-H4KAc4 peptide 12.5 nM; List of Classification. The class given is binding. In short, it runs like this: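 Acetylated histone H4 peptide binding (biotin-H4KAc4, 12.5 nM final) to BRD4 (50 nM final) detected by TR-FRET between streptavidin cryptate (2.4 nM) and GST-XL665 antibody (10 nM) in KF/BSA. Buffer: HEPES pH 7.5, NaCl, CHAPS. Compound dilutions from 50 μM in 12.5% DMSO were preincubated with protein for 30 min. Variable-slope IC50.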
By IC50 is commonly meant the concentration at which inhibition is half-maximal. As for `CN(C)S(=O)(=O)c1ccc(N2CCCC2)c(C(=O)Nc2cc(F)c3c(c2)C(C)(C)CC(=O)N3)c1` [Compound-106, 5-(dimethylsulfamoyl)-N-(8-fluoro-4,4-dimethyl-2-oxo-1,3-dihydroquinolin-6-yl)-2-pyrrolidin-1-yl-benzamide], the IC50 was < 200 nM. For `COc1cc(NC(=O)c2cc(S(=O)(=O)N(C)C)ccc2N2CCCC2)cc2c(C)cc(O)nc12` [Compound-108, 5-(dimethylsulfamoyl)-N-(2-hydroxy-8-methoxy-4-methyl-6-quinolyl)-2-pyrrolidin-1-yl-benzamide], the IC50 was < 200 nM. As to `Cc1cc(O)nc2ccc(NC(=O)c3cc(C(F)(F)F)ccc3N3CCCC3)cc12` [Compound-109, N-(2-hydroxy-4-methyl-6-quinolyl)-2-pyrrolidin-1-yl-5-(trifluoromethyl)benzamide], the IC50 was < 200 nM. As to `Cc1cc(O)nc2ccc(NC(=O)c3cc(S(=O)(=O)N4CCOCC4)ccc3N3CCC(O)C3)cc12` (stereo not shown) [Compound-110, N-(2-hydroxy-4-methyl-6-quinolyl)-2-(3-hydroxypyrrolidin-1-yl)-5-morpholino-sulfonyl-benzamide], the IC50 is < 200 nM. On to `COC1CCN(c2ccc(S(=O)(=O)N3CCOCC3)cc2C(=O)Nc2ccc3nc(O)cc(C)c3c2)C1` (stereo not shown) [Compound-111, N-(2-hydroxy-4-methyl-6-quinolyl)-2-(3-methoxypyrrolidin-1-yl)-5-morpholino-sulfonyl-benzamide], for which the IC50 is < 200 nM. Regarding `Cc1cc(O)nc2ccc(NC(=O)c3cc(CC#N)ccc3N3CCCC3)cc12` [Compound-112, 5-(cyanomethyl)-N-(4-methyl-2-oxo-1,2-dihydroquinolin-6-yl)-2-(pyrrolidin-1-yl)benzamide], the IC50 is < 200 nM. `Cc1cc(O)nc2ccc(NC(=O)c3cc(C4(N5CCOCC5)CC4)ccc3N3CCCC3CN(C)C)cc12` (stereo not shown) [Compound-114, 2-(2-((dimethylamino)methyl)pyrrolidin-1-yl)-N-(2-hydroxy-4-methylquinolin-6-yl)-5-(1-morpholinocyclopropyl) benzamide]: the IC50 was < 200 nM. The value for `Cc1cc(O)nc2ccc(NC(=O)c3cc(C#N)ncc3N3CCC(F)C3)cc12` (stereo not shown) [Compound-115, 2-cyano-5-(3-fluoropyrrolidin-1-yl)-N-(2-hydroxy-4-methylquinolin-6-yl) isonicotinamide] was < 200 nM. As to `Cc1cc(O)nc2ccc(NC(=O)c3cc(C#N)ncc3N3CCOCC3)cc12` [Compound-116, 2-cyano-N-(2-hydroxy-4-methylquinolin-6-yl)-5-morpholinoisonicotinamide], the IC50 was < 200 nM. The value for `Cc1cc(O)nc2ccc(NC(=O)c3cccnc3N3CCOCC3C)cc12` (stereo not shown) [Compound-120, N-(2-hydroxy-4-methyl-6-quinolyl)-2-(3-methylmorpholin-4-yl)pyridine-3-carboxamide] was < 200 nM; that for `Cc1cc(O)nc2ccc(NC(=O)c3cccnc3N3CCCC3CN(C)C)cc12` (stereo not shown) [Compound-121, 2-[2-(dimethylaminomethyl)pyrrolidin-1-yl]-N-(2-hydroxy-4-methyl-6-quinolyl)pyridine-3-carboxamide] was < 200 nM; that for `Cc1cc(O)nc2ccc(NC(=O)c3cnccc3N3CCOCC3)cc12` [Compound-123, N-(2-hydroxy-4-methyl-6-quinolyl)-4-morpholino-pyridine-3-carboxamide] was < 200 nM. For the compound `Cc1cc(O)nc2ccc(NC(=O)c3cnccc3N3CCCC3)cc12` [Compound-124, N-(2-hydroxy-4-methyl-6-quinolyl)-4-pyrrolidin-1-yl-pyridine-3-carboxamide], the 50% inhibitory concentration (IC50) lay in the range of 200 to 500 nM.

As to `Cc1cc2nc(O)cc(C)c2cc1NC(=O)c1cccnc1N1CCOCC1` [Compound-125, N-(2-hydroxy-4,7-dimethyl-6-quinolyl)-2-morpholino-pyridine-3-carboxamide], the IC50 fell in the range of 500 to 1000 nM.

As to `Cc1cc2nc(O)cc(C)c2cc1NC(=O)c1cccnc1N1CCC(F)C1` (stereo not shown) [Compound-126, 2-(3-fluoropyrrolidin-1-yl)-N-(2-hydroxy-4,7-dimethyl-6-quinolyl)pyridine-3-carboxamide], the IC50 was 500 to 1000 nM. To `Cc1cc2nc(O)cc(C)c2cc1NC(=O)c1cccnc1N1CCC(F)(F)C1` [Compound-127, 2-(3,3-difluoropyrrolidin-1-yl)-N-(2-hydroxy-4,7-dimethyl-6-quinolyl)pyridine-3-carboxamide] belongs 200 to 500 nM; to `CC(C)c1cc(O)nc2ccc(NC(=O)c3cccnc3N3CCOCC3)cc12` [Compound-129], 1000 to 10000 nM; to `CN1Cc2cc(NC(=O)c3cccnc3N3CCOCC3)ccc2NC1=O` [Compound-130, N-(3-methyl-2-oxo-1,4-dihydroquinazolin-6-yl)-2-morpholino-pyridine-3-carboxamide], 1000 to 10000 nM.

In the case of `CN1C(=O)CCc2cc(NC(=O)c3cccnc3N3CCOCC3)ccc21` [Compound-131, N-(1-methyl-2-oxo-3,4-dihydroquinolin-6-yl)-2-morpholino-pyridine-3-carboxamide], the IC50 is 1000 to 10000 nM. For `Cc1cc(O)nc2ccc(NC(=O)c3cccnc3N3CCC(F)C3)cc12` (stereo not shown) [Compound-132, 2-(3-fluoropyrrolidin-1-yl)-N-(2-hydroxy-4-methyl-6-quinolyl)pyridine-3-carboxamide], the IC50 is < 200 nM. As for `Cc1cc(O)nc2ccc(NC(=O)c3cccnc3N3CCC(F)(F)C3)cc12` [Compound-133, 2-(3,3-difluoropyrrolidin-1-yl)-N-(2-hydroxy-4-methyl-6-quinolyl)pyridine-3-carboxamide], the IC50 was < 200 nM. With `Cc1cc(O)nc2ccc(NC(=O)c3ccc(C(F)(F)F)nc3N3CCCC3)cc12` [Compound-134, N-(2-hydroxy-4-methyl-6-quinolyl)-2-pyrrolidin-1-yl-6-(trifluoromethyl)pyridine-3-carboxamide], the IC50 is < 200 nM. `Cc1cc(O)nc2ccc(NC(=O)c3ccc(C(F)(F)F)nc3N3CCOCC3)cc12` [Compound-135, N-(2-hydroxy-4-methyl-6-quinolyl)-2-morpholino-6-(trifluoromethyl)pyridine-3-carboxamide] gave an IC50 of 200 to 500 nM. Take `Cc1cc(O)nc2c(C)cc(NC(=O)c3cccnc3N3CCOCC3)cc12` [Compound-136, N-(2-hydroxy-4,8-dimethyl-6-quinolyl)-2-morpholino-pyridine-3-carboxamide]: the IC50 is < 200 nM. Take `Cc1cc2nc(O)cc(C)c2cc1NC(=O)c1c(C)ccnc1N1CCOCC1` [Compound-137, N-(2-hydroxy-4,7-dimethyl-6-quinolyl)-4-methyl-2-morpholino-pyridine-3-carboxamide]: the IC50 lay in the range of 1000 to 10000 nM. Consider `Cc1ccnc(N2CCOCC2)c1C(=O)Nc1ccc2nc(O)cc(C)c2c1` [Compound-138, N-(2-hydroxy-4-methyl-6-quinolyl)-4-methyl-2-morpholino-pyridine-3-carboxamide], for which the IC50 was in the range of 1000 to 10000 nM. As to `Cc1cc(O)nc2ccc(NC(=O)c3cc(C(F)(F)F)cnc3N3CCOCC3)cc12` [Compound-139, N-(2-hydroxy-4-methyl-6-quinolyl)-2-morpholino-5-(trifluoromethyl)pyridine-3-carboxamide], the IC50 was < 200 nM. For `Cc1cc(O)nc2ccc(NC(=O)c3cc(Cl)cnc3N3CCOCC3)cc12` [Compound-140, 5-chloro-N-(2-hydroxy-4-methyl-6-quinolyl)-2-morpholino-pyridine-3-carboxamide], the IC50 is < 200 nM. The value for `Cc1cc(O)nc2ccc(NC(=O)c3cccnc3N3CCOC4CNCC43)cc12` (stereo not shown) [Compound-142, 2-(3,4a,5,6,7,7a-hexahydro-2H-pyrrolo[3,4-b][1,4]oxazin-4-yl)-N-(2-hydroxy-4-methyl-6-quinolyl)pyridine-3-carboxamide] was < 200 nM. Consider `Cc1cc(O)nc2ccc(NC(=O)c3cccnc3N3CCOC4COCC43)cc12` (stereo not shown) [Compound-143, 2-(2,3,4a,5,7,7a-hexahydrofuro[3,4-b][1,4]oxazin-4-yl)-N-(2-hydroxy-4-methyl-6-quinolyl)pyridine-3-carboxamide], for which the IC50 was in the range of 500 to 1000 nM. In the case of `Cc1cc(O)nc2ccc(NC(=O)c3cccnc3N3C4CCC3COC4)cc12` [Compound-144, N-(2-hydroxy-4-methyl-6-quinolyl)-2-(3-oxa-8-azabicyclo[3.2.1]octan-8-yl)pyridine-3-carboxamide], the IC50 is < 200 nM. To `Cc1cc(O)nc2ccc(NC(=O)c3cccnc3N3CCOCC3CO)cc12` (stereo not shown) [Compound-145, 2-[3-(hydroxymethyl)morpholin-4-yl]-N-(2-hydroxy-4-methyl-6-quinolyl)pyridine-3-carboxamide] belongs < 200 nM. Turning to `Cc1cc(O)nc2ccc(NC(=O)c3cccnc3N3CCC(F)(F)CC3)cc12` [Compound-146, 2-(4,4-difluoro-1-piperidyl)-N-(2-hydroxy-4-methyl-6-quinolyl)pyridine-3-carboxamide], the IC50 was < 200 nM. The value for `Cc1cc(O)nc2ccc(NC(=O)c3cccnc3N3CCn4ccnc4C3)cc12` [Compound-147, 2-(6,8-dihydro-5H-imidazo[1,2-a]pyrazin-7-yl)-N-(2-hydroxy-4-methyl-6-quinolyl)pyridine-3-carboxamide] was 500 to 1000 nM; that for `COc1cc(O)nc2ccc(NC(=O)c3cccnc3N3CCOCC3)cc12` [Compound-149, N-(2-hydroxy-4-methoxy-6-quinolyl)-2-morpholino-pyridine-3-carboxamide] was 500 to 1000 nM; that for `Cc1cc(O)nc2ccc(NC(=O)c3cc(-c4cnoc4)ccc3N3CCOCC3)cc12` [Compound-151, N-(2-hydroxy-4-methyl-6-quinolyl)-5-isoxazol-4-yl-2-morpholino-benzamide] was < 200 nM.

For `Cc1noc(C)c1-c1ccc(N2CCOCC2)c(C(=O)Nc2ccc3nc(O)cc(C)c3c2)c1` [Compound-152, 5-(3,5-dimethylisoxazol-4-yl)-N-(2-hydroxy-4-methyl-6-quinolyl)-2-morpholino-benzamide], the IC50 was < 200 nM.
